For 17 compounds, TGI results are on record in PubChem BioAssay (NCI).

The structures appear in SMILES notation.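 Five compound concentrations were applied to cells in 96-well plates for 48 hours; endpoints were derived by simple linear interpolation of the resulting dose-response curve. TGI is the concentration that stops growth completely.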 Bounds are passed on as bounds.

Common to all, as to experiment: NCI-60 cell line screen, 48 h
The subject of experiment [1] is A498 renal.
For experiment [2], the system named is RXF 393 renal.
For experiment [3], the system named is SR leukemia.
Experiment [4] relates to HCC-2998 colon.
For experiment [5], the system named is UACC-62 melanoma.
Experiment [6] deals with MOLT-4 leukemia.
Experiment [7] relates to ACHN renal.
In experiment [8] the test system is SF-295 CNS.
In experiment [9] the test system is HS 578T breast.
Experiment [10] deals with NCI/ADR-RES ovarian.

Turning to `CN(C)C(=S)Nc1nnc(NC23CC4CC(CC(C4)C2)C3)s1`, the TGI in experiment [1] was 37.3 µM; in experiment [2], 34.1 µM; in experiment [3] it was 57.9 µM; in experiment [4], 35.5 µM; in experiment [5] it was 32.6 µM; in experiment [6], over 100 µM. For the same compound, the TGI was 64 µM in [7] and 30.7 µM in experiment [8].
Consider `CN1CCc2c(sc3nc(Nc4ccccc4)n(N)c(=O)c23)C1`, for which the TGI in [9], in experiment [1], in experiment [2], in [10], in experiment [5] and in [6] was over 100 µM each time. In addition, the TGI in [7] and in experiment [8] was over 100 µM each time.
As for `Nn1c(CNc2ccc(-c3nnc(Nc4ccc(Cl)cc4)n3N)cc2)nnc1Nc1ccc(Cl)cc1`, the TGI in experiment [1], in [2], in experiment [4], in [10], in experiment [5] and in [6] was over 100 µM each time. Besides, the TGI in experiment [7] and in experiment [8] was over 100 µM each time.
For `COC1/C=C\C=C(/C)C(=O)NC2=CC(=O)C=C(C2=O)C(OC)C(C)CC(OC)C(OC)C(C)/C=C(/C)C1OC(N)=O` (stereo not given), the TGI is 28.4 µM in [1]; 15.9 µM in experiment [4]; 21.8 µM in experiment [10]; 15.7 µM in [5]; 1.25 µM in experiment [6]; 35.4 µM in experiment [8].
Take `C=CCn1c2ccccc2c2c(C)c3cnccc3c(C)c21`: the TGI in experiment [1] was determined as 49.8 µM; in experiment [2] it was 24.5 µM; in experiment [4], 104 µM; in [10], 34.4 µM; in [5], 41.2 µM; in [6], 9.82 µM. Further, in [8], the TGI came to 52.5 µM.
Regarding `O=C(O)CC(NC(=O)C(F)(F)F)C(=O)NC1Cc2ccccc2OC1=O` (stereo not given), the TGI in [9], in experiment [2], in experiment [3], in [4], in experiment [10] and in experiment [5] was over 100 µM throughout. The TGI in [6], in experiment [7] and in experiment [8] was over 100 µM throughout.
In the case of `CC(C)OP(=O)(OC(C)C)C(C(F)(F)F)C(F)(F)F`, the TGI in [9], in [2], in experiment [3], in [4], in experiment [10] and in experiment [5] was over 100 µM throughout. Further, the TGI in experiment [6], in experiment [7] and in experiment [8] was over 100 µM throughout.
As to `ON=C1CCCCC(=NO)CCCC1`, the TGI in [9], in [1], in [4], in experiment [10], in experiment [5] and in experiment [7] was over 100 µM throughout. Besides, the TGI in experiment [8] is over 100 µM.
Consider `O=[N+]([O-])c1cc2n[nH]nc2c2nonc12`, for which the TGI in experiment [9] is 58.8 µM; in experiment [3], over 100 µM; in experiment [4] it was 38.7 µM; in experiment [10], over 100 µM; in [6] it was 95.6 µM; in experiment [7], 67.6 µM. The TGI in experiment [8] was over 100 µM.
With `CN(c1c(Cl)cccc1Cl)S(=O)(=O)c1ccccc1[N+](=O)[O-]`, the TGI in [9], in experiment [2], in experiment [3], in experiment [4], in experiment [10] and in experiment [5] was over 100 µM throughout. Also, the TGI in experiment [6], in [7] and in experiment [8] was over 100 µM throughout.
Regarding `C=C1C(=O)OC2/C=C(\C)CC/C=C(/C)CC(OC(=O)/C(=C/CO)CO)C12` (stereo not given), the TGI in experiment [9] is over 100 µM; in [2], 23.7 µM; in experiment [3] it was over 100 µM; in experiment [4], 41.3 µM; in [10], over 100 µM; in experiment [5], 33.1 µM. The TGI in experiment [6] was over 100 µM; in experiment [7] it was 33.5 µM; in experiment [8], over 100 µM.
On to `Cc1ccc2nc3c(C(=O)NCCN(C)C)cccc3cc2c1`, for which the TGI in experiment [1] came to 3.4 µM; in experiment [2], 7.02 µM; in experiment [4] it was 14.8 µM; in experiment [10], 4.25 µM; in [5], 6.77 µM; in experiment [8], 7.14 µM.
`Cc1c2c(c(C)c3c[n+](C)ccc13)Oc1ccccc1O2`: the TGI was 12.9 µM in experiment [9]; over 100 µM in [1]; over 100 µM in [2]; 19.8 µM in [4]; over 100 µM in experiment [10]; 27.4 µM in [5]. The TGI in experiment [6] was 23.8 µM; in experiment [7] it was over 100 µM; in [8] it was over 80.4 µM.
Turning to `N#CC12COC3(CCCCC3C1(C#N)C#N)OC2=N` (stereo not given), the TGI is 44.7 µM in [9]; 39.3 µM in experiment [1]; 25.8 µM in experiment [2]; over 100 µM in experiment [10]; 33.9 µM in [5]; 79.7 µM in [6]. Also, the TGI came out at 30.1 µM in experiment [7] and 43.1 µM in experiment [8].
On to `O=C(NC(=O)c1cn(CCN2CCNCC2)c(=O)[nH]c1=O)OCc1ccccc1`, for which the TGI in experiment [3], in experiment [5], in [6], in [7] and in [8] was over 100 µM throughout.
Take `NCCCNCCSSCc1ccccc1CSSCCNCCCN`: the TGI in [1], in [2], in [4], in experiment [5], in [6] and in experiment [7] was over 100 µM each time. This compound also registered a TGI in [8] of over 100 µM.
Consider `C=CCN1CCC(OC(=O)C(O)(/C=C\CC)C2CCCC2)CC1` (stereo not given), for which the TGI in [9], in [1], in experiment [2], in experiment [10], in experiment [5] and in experiment [6] was over 100 µM throughout. Also, the TGI in [7] and in experiment [8] was over 100 µM in each case.
